Measurements published in ChEMBL document CHEMBL1126892, “Comparative molecular field analysis of in vitro growth inhibition of L1210 and HCT-8 cells by some pyrazoloacridines” (J Med Chem, 1993).

How the values were obtained:
L1210 = test: Growth inhibition against mouse leukemia L1210 cell line; assay type: functional, cell-based
HCT-8 = test: Growth inhibition against human colon carcinoma HCT-8 cell line; assay type: functional, cell-based

Row | IC50 (L1210) [nM] | IC50 (HCT-8) [nM] | Compound
1 | > 10000 | – | CCN(CC)CCN1Nc2c3ccccc3nc3c(NC(C)=O)ccc1c23
2 | 863 | 786 | CCN(CC)CCN1Nc2c3cc(C)ccc3nc3c([N+](=O)[O-])ccc1c23
3 | 1830 | 774 | CCN(CC)CCN1Nc2c3cc(S(C)(=O)=O)ccc3nc3c([N+](=O)[O-])ccc1c23
4 | 396 | 105 | COc1ccc2c(c1)-c1nn(CCN(C)C)c3ccc([N+](=O)[O-])c(c13)N2
5 | 192 | 185 | CCN(CC)CCN1Nc2c3ccccc3nc3c([N+](=O)[O-])ccc1c23
6 | 1330 | 764 | CCN(CC)CCCN1Nc2c3cc(OC)ccc3nc3c([N+](=O)[O-])ccc1c23
7 | 646 | 339 | CCCCOc1ccc2c(c1)-c1nn(CCNCCO)c3ccc([N+](=O)[O-])c(c13)N2
8 | – | 55 | CCOc1ccc2c(c1)-c1nn(CCCN(C)C)c3ccc([N+](=O)[O-])c(c13)N2
9 | 218 | 152 | O=[N+]([O-])c1ccc2c3c(c4ccccc4nc13)NN2CCNCCO
10 | 325 | 82 | CCOc1ccc2c(c1)-c1nn(CCNCCO)c3ccc([N+](=O)[O-])c(c13)N2
11 | 469 | 31 | CCCOc1ccc2c(c1)-c1nn(CCN(CC)CC)c3ccc([N+](=O)[O-])c(c13)N2
12 | > 10000 | > 10000 | COc1ccc2c(c1)-c1nn(CCO)c3ccc([N+](=O)[O-])c(c13)N2
13 | 2680 | 1140 | CCN(CC)CCN1Nc2c3cc(OCc4ccccc4)ccc3nc3c([N+](=O)[O-])ccc1c23
14 | – | 114 | CCOc1ccc2c(c1)-c1nn(CCN(CC)CC)c3ccc([N+](=O)[O-])c(c13)N2
15 | 6 | 6 | CCN(CC)CCN1Nc2c3cc(O[Si](C)(C)C(C)(C)C)ccc3nc3c([N+](=O)[O-])ccc1c23
16 | 399 | 66 | CCN(CC)CCN1Nc2c3cc(OC)ccc3nc3c([N+](=O)[O-])cc([N+](=O)[O-])c1c23
17 | 592 | 255 | Cc1ccc2c(c1)-c1nn(CCNCCO)c3ccc([N+](=O)[O-])c(c13)N2
18 | > 10000 | 1560 | CCN(CC)CCn1nc2c3c(c(N)ccc31)N(C)c1ccccc1-2
19 | 513 | 352 | CSc1ccc2c(c1)-c1nn(CCCN(C)C)c3ccc([N+](=O)[O-])c(c13)N2
20 | 510 | 518 | CN1c2ccccc2-c2nn(CCNCCO)c3ccc([N+](=O)[O-])c1c23
21 | 605 | 308 | CCN(CC)CCn1nc2c3c(c([N+](=O)[O-])ccc31)N(C)c1ccc(OC)cc1-2

Row | IC50 (L1210) [nM] | IC50 (HCT-8) [nM] | Compound
22 | 896 | 317 | CCN(CC)CCN1Nc2c3cc(N(C)C)ccc3nc3c([N+](=O)[O-])ccc1c23
23 | 275 | 25 | CCOc1ccc2c(c1)-c1nn(CCN(C)C)c3ccc([N+](=O)[O-])c(c13)N2
24 | > 10000 | – | CN1Nc2c3ccccc3nc3c([N+](=O)[O-])ccc1c23
25 | 1180 | 73 | CCCCOc1ccc2c(c1)-c1nn(CCN(CC)CC)c3ccc([N+](=O)[O-])c(c13)N2
26 | 10 | 10 | CCN(CC)CCN1Nc2c3cc(OC(=O)C(C)(C)C)ccc3nc3c([N+](=O)[O-])ccc1c23
27 | 1 | 11 | CC(=O)Oc1ccc2nc3c([N+](=O)[O-])ccc4c3c(c2c1)NN4CCCN(C)C
28 | 469 | 123 | CCN(CC)CCN1Nc2c3cc(OC)ccc3nc3c([N+](=O)[O-])ccc1c23
29 | 208 | 124 | CCNCCN1Nc2c3cc(OC)ccc3nc3c([N+](=O)[O-])ccc1c23
30 | 8 | 27 | CN(C)CCCN1Nc2c3cc(OC(=O)C(C)(C)C)ccc3nc3c([N+](=O)[O-])ccc1c23
31 | 645 | 506 | CCN(CC)CCN1Nc2c3cccc(OC)c3nc3c([N+](=O)[O-])ccc1c23
32 | 785 | 297 | CCN(CC)CCn1nc2c3c(c(/N=C/N(C)C)ccc31)N(C)c1ccccc1-2
33 | 877 | 788 | CCN(CC)CCN1c2ccccc2-c2nn(CCN(CC)CC)c3ccc([N+](=O)[O-])c1c23
34 | > 10000 | – | O=[N+]([O-])c1ccc2c3c(c4ccccc4nc13)NN2CCO
35 | > 10000 | – | C=Cn1nc2c3c(c([N+](=O)[O-])ccc31)N(C)c1ccccc1-2
36 | 618 | 901 | CCN(CC)CCn1nc2c3c(c([N+](=O)[O-])ccc31)N(C)c1ccccc1-2
37 | 2 | – | CN(C)CCCN1Nc2c3cc(O)ccc3nc3c([N+](=O)[O-])ccc1c23
38 | 4 | 5 | CCN(CC)CCN1Nc2c3cc(OC(C)=O)ccc3nc3c([N+](=O)[O-])ccc1c23
39 | 2710 | 1220 | C=CCN1c2ccccc2-c2nn(CCNCCO)c3ccc([N+](=O)[O-])c1c23
40 | 601 | 164 | CN(C)CCN1Nc2c3cc(N(C)C)ccc3nc3c([N+](=O)[O-])ccc1c23
41 | 450 | 193 | COc1ccc2c(c1)-c1nn(CCNCCO)c3ccc([N+](=O)[O-])c(c13)N2
42 | 424 | 136 | COc1ccc2c(c1)-c1nn(CCCN(C)C)c3ccc([N+](=O)[O-])c(c13)N2 [PYRAZOLOACRIDINE]

Row | Compound | IC50 (L1210) [nM] | IC50 (HCT-8) [nM]
43 | COc1ccc2c(c1)-c1nn(CCN(C)C)c3c([N+](=O)[O-])cc([N+](=O)[O-])c(c13)N2 | 49 | 15
